The source of these data is a melting point compilation (Tetko et al.; mined from patent text by program, amines drawn as free bases though some values may be those of a salt).

Molecules are shown by their SMILES. Residues, ends and D or L forms follow the SMILES beside them. *: point of attachment. Cbz = O=C(OCc1ccccc1)*

`NC(=S)NN1CCc2cc(Cl)ccc21`: the melting point was in the range of 199 to 200 °C. Under `CN1C(=O)C2(COc3cc4c(cc32)OCCO4)c2c(O)cccc21` (stereo not drawn) stands over 250 °C. The molecule `CS(=O)c1cc(Br)nc(Br)c1` (stereo not drawn) registered a melting point of 98 to 100 °C. `Cc1cc(Cl)ccc1Oc1ccc([N+](=O)[O-])cc1C#N`: the melting point was 144 to 146 °C. In turn, `CCCCCc1nc(N(C)C)nc(C)c1O` came in with a melting point of 61 to 62 °C. `O=c1occ(CSc2ccc([N+](=O)[O-])cc2)o1` gave a melting point of 109 to 112 °C. The result for `CC(C)n1nc(-c2sc(NC(=O)c3ccc(CN(C)CCc4ccccn4)cc3)nc2-c2ccccc2)ccc1=O` reads 172 to 174 °C; that for `CCOC(=O)C1CCC2(C)C(=CC(O)C3C2CCC2(C)C(O)CCC32)C1` (stereo not drawn), 170 to 171 °C. Consider `C=CC(C)(O)C=CC1=C(C)C(=O)C(OC(C)(C)OC)CC1(C)C` (stereo not drawn), for which the melting point was 47.5 to 49 °C. The result for `CC(C)NC(=O)n1cc(Cl)c(-c2cc(Cl)cc(Cl)c2)n1` reads 127 °C; that for `CC(CCc1cc2cccnc2n(-c2cccc(N(C)C)c2)c1=O)c1ccncc1` (stereo not drawn), 148 to 154 °C; that for `CC(C)c1c(C=CC2CC(O)CC(O)O2)n(C2CCCCC2)c(=O)c2ccccc12` (mixture of isomers), 141 to 142 °C. Take `O=C(c1ccccc1)C(O)n1cncc1Cl` (stereo not drawn): the melting point lay in the range of 201 to 203 °C. Take `CC(C)(C)CCN(CCC(C)(C)C)[C@@H](CC(=O)O)C(=O)O`: the melting point was 197 to 198 °C. The molecule `COC(=O)CCC1(CCC(=O)OC)c2cc(N(c3ccccc3)c3cccc(C)c3)ccc2-c2ccc(N(c3ccccc3)c3cccc(C)c3)cc21` registered a melting point of 159 to 160 °C. The result for `Cc1c(C(=O)Cl)c(C)c2cccc(C)c2c1C` reads 216 °C; that for `COC(=O)[C@@]12CN(Cc3ccccc3)C[C@@H]1[C@@](O)(c1ccc(OC)cc1)CC[C@H]2c1ccccc1` (racemic), 136 °C. The result for `COC(=O)CC[C@H](NC(=O)c1ccc(I)cc1F)C(=O)OC` reads 94 to 96 °C; that for `CCOC(=O)c1cn(-c2ccc(F)cc2F)c2c(Cl)c(F)c(F)cc2c1=O`, 211 to 212 °C. The result for `CCCCC[C@H]1CC[C@H](c2ccc(C#C[Si](C)(C)C)nn2)CC1` reads 118 to 119 °C. With `CC1(C)CC(O)c2cc(N)ccc21` (stereo not drawn), the melting point came out at 118 °C. Under `Oc1nc(Cc2ccccc2)nc(O)c1-c1ccccc1` stands 337 °C. Under `O=C(c1ccc([N+](=O)[O-])o1)N1CCN(CC(O)COc2cccc3[nH]c4ccccc4c23)CC1` (stereo not drawn) stands 178 to 181 °C. In turn, `O=C(O)c1ccccc1OCCN1CCC(c2cn(CCC3OCCO3)c3ccccc23)CC1` registered a melting point of 118 to 120 °C.

With `COc1ccc(C(=O)N2c3ccccc3C(N3CCCCc4ccccc43)=CC2C)cc1OC` (stereo not drawn), the melting point was in the range of 151 to 152 °C. Under `CCCCCCCCCCCCCCCCCCOc1ccc(C=Cc2ccc(S(=O)(=O)CCCO)cc2)cc1` stands 137 °C; under `COC(=O)C(C)NC(=O)C1CCCN1C(=O)CNC(=O)OCc1ccccc1` (stereo not drawn) (Cbz-Gly-Pro-Ala-OMe; configuration not given here), 103 to 106 °C. The result for `CCCCc1cc2c(cc1/C=C/c1ccc(C(=O)O)cc1)C(C)(C)CCC2(C)C` reads 192 to 194 °C; that for `O=C1CSc2ccc(S(=O)(=O)Cc3c(Cl)cccc3Cl)cc2N1`, 244 to 246 °C; that for `CC(=O)NCCn1c(C)ccc1C`, 106 to 107 °C. In turn, `CCOC(=O)c1ccccc1CCc1ccc2oc(-c3nc(C(C)(C)C)cs3)cc2c1` showed a melting point of 75 to 77 °C. The molecule `CC(C(O)CCC(C)(C)C)C1CCC2C3CC=C4CC(O)CCC4(C)C3CCC12C` (stereo not drawn) registered a melting point of 191 to 193 °C. As to `Cc1nc(O)cc2sccc12`, the melting point was in the range of 225 to 227 °C. `CCOC(=O)N1C(=S)NC(C)=C(C(=O)OC)C1c1cccc(Cl)c1Cl` (stereo not drawn) displayed a melting point of 190 to 191 °C.

`CCOC(=O)C(=O)Nc1ccc(Cl)ccc1=O` yielded a melting point of 178 to 179 °C.

With `O=[N+]([O-])c1cc(Br)nc(Br)c1`, the melting point lay within 122 to 123 °C. In turn, `COC(=O)NCc1cccc(-c2ccccc2)c1C` showed a melting point of 91 to 94 °C. The result for `CNC(=O)NCCN1CCC(Nc2nc3ccccc3n2Cc2cnc(C)o2)CC1` reads 203 °C. For `CCCc1cc(-c2ccc(F)c3ccccc23)nc(N)n1`, the melting point came out at 137 °C. The molecule `Cc1ccc(NC(=O)NCc2ccc3c(c2)CN(C2CCC(=O)NC2=O)C3=O)cc1` (stereo not drawn) returned a melting point of 267 to 269 °C. Take `CC(=O)SCC(Cc1ccccc1)C(=O)Nc1cc(C(=O)O)ccc1Cl` (stereo not drawn): the melting point fell in the range of 204 to 206 °C.

The molecule `CCCNC(=O)C(C)Cc1ccc2ccn(Cc3ccc(C(=O)NS(=O)(=O)c4ccccc4C)cc3OC)c2c1` (stereo not drawn) displayed a melting point of 192 to 194 °C. `O=c1c2ccccc2oc2c(CBr)cccc12`: the melting point is 191 to 192 °C.

As for `O=c1ccn([C@@H]2C(F)=C(CCO)[C@@H](O)[C@H]2O)c(=O)[nH]1`, the melting point is 166 to 167 °C.

Turning to `COc1cc(C(C)C)c2c(c1)S(=O)(=O)N(COc1cc(C(F)(F)F)nn1C)C2=O`, the melting point lay in the range of 107 to 108 °C. Under `CCCCCC(CC(=O)Nc1cc(C(=O)NC(=O)c2ccncc2)ccc1C(C)(C)C)c1ccc(OC)cc1OC` (stereo not drawn) stands 184 to 185 °C; under `COC(=O)c1c(F)cc(OCCNC(=O)C2Cc3ccccc3N2S(=O)(=O)c2ccc(-c3ccc(F)cc3)cc2)cc1F` (stereo not drawn), 83 °C; under `CC(C)(C)[Si](OCc1ccc([N+](=O)[O-])cc1)(c1ccccc1)c1ccccc1`, 80 to 81 °C. On to `CC(=O)N1CCC(n2cc(C3=C(c4cn(C)c5ccccc45)C(=O)NC3=O)c3ccccc32)CC1`, for which the melting point was over 293 °C. In the case of `CCC(C)(CC)C(=O)C=C(P(=O)(O)O)P(=O)(O)O`, the melting point was 146 to 147 °C. As to `CCOC(=O)C#CC(C)(C)OC(N)=O`, the melting point lay within 111 to 114 °C. The result for `Cc1c(Br)cccc1NCc1c(C(=O)O)sc2ccccc12` reads 120 to 121 °C. Under `Oc1cccc2c1CC(N1CCN(c3ncccn3)CC1)CC2` (stereo not drawn) stands over 300 °C; under `O=[N+]([O-])c1cc(S(=O)(=O)NCCO)sc1Cl`, 99 °C.

`Nc1ccn(C2CC(O)C(CO)O2)c(=O)c1F` (stereo not drawn) showed a melting point of 161 to 163 °C.

Consider `N=C(N)NN=Cc1cccc(Cl)c1I`, for which the melting point is 231 to 232 °C.

For the molecule `COC(=O)c1ccc2[nH]c(=O)oc2c1`, the melting point lay in the range of 149 to 151 °C. For the molecule `CC(C)(C)C(O)Cn1c(=O)c(=NNc2ccccc2)c(=O)n(-c2ccccc2F)c2ccccc21` (stereo not drawn), the melting point lay in the range of 217 to 218 °C. The result for `CC(Br)C(=O)c1ccc(OC(=O)C(C)(C)C)c(OC(=O)C(C)(C)C)c1` (stereo not drawn) reads 58 to 60 °C; that for `CNC(=O)Oc1ccccc1`, 84 to 85 °C. The result for `O=C(O)CCCCCc1nn(Cc2ccccc2)c2c1CCC2` reads 94 to 95 °C; that for `COc1cccc(C(=O)N2c3ccccc3C(O)CC2C)c1` (stereo not drawn), 148 to 149 °C. The result for `CCOCCOC(=O)C(=O)Nc1nc(-c2ccc(OC)cc2OC)cs1` reads 118 to 120 °C. Molecule `CN(NC(=O)c1c(F)cccc1Cl)S(C)(=O)=O` yielded a melting point of 135 to 136 °C.

`COc1ccc(N2C(=O)[C@H](NC(=O)OC(C)(C)C)[C@@H]2CON2C(=O)c3ccccc3C2=O)cc1` (relative stereo) registered a melting point of 188 to 189 °C. The result for `Cn1c(=O)c2c(ncn2CC(O)COC(=O)COc2ccc(Cl)cc2)n(C)c1=O` (stereo not drawn) reads 81 to 83 °C.

In turn, `COc1ccc(COC(=O)CC(=O)Oc2ccc3sc4nc(-c5ccc(OC)cc5)cn4c3c2)cc1` showed a melting point of 158 to 160 °C. The result for `COc1cc(C2C3=C(COC3=O)N(C)c3cc4c(cc32)OCO4)cc(OC)c1O` (stereo not drawn) reads 250 °C; that for `CCCC(=O)Nc1cc(C(=O)NC2CCN(C(C)CC(C(=O)N(C)C)(c3ccccc3)c3ccccc3)CC2OC)c(OC)cc1Cl` (stereo not drawn), 131 °C; that for `O=C1c2ccccc2C(=O)N1OCCc1cn(C(c2ccccc2)(c2ccccc2)c2ccccc2)cn1`, 177 °C. `CC(O)(CN)c1ccc(Oc2ccc3c(c2)S(=O)(=O)NC2CCCN32)cc1` (stereo not drawn): the melting point lay in the range of 76 to 78 °C. `CON(C)C(=O)c1c(-c2ccc(Cl)cc2)nsc1-c1ccccc1` displayed a melting point of 119 to 120 °C.

`CC(=O)Nc1nc(-c2cccc3ccccc23)co1` showed a melting point of 188 to 190 °C.

As to `O=CNc1ccc(S(=O)(=O)C[N+](=O)[O-])cc1`, the melting point lay within 192 to 193 °C. The result for `CCC(Oc1cccc(C)c1)C(=O)OC1CC(O)C=C2C=CC(C)C(CCC3CC(O)CC(=O)O3)C21` (mixture of isomers) reads 147 to 149 °C.

Regarding `O=C1N(O)CCC12CCOc1ccc(F)cc12` (stereo not drawn), the melting point fell in the range of 208 to 209 °C. The result for `CC(C)CC1(C(C)C(=O)O)CCN(CCc2ccccc2)C1=O` (stereo not drawn) reads 94 to 95 °C. Regarding `CCCCCCCCCCCC(=O)NCCCSc1ccncc1`, the melting point fell in the range of 71 to 72 °C. Regarding `CN1CCN(c2cccc(NC(=O)c3ccc(-c4ccncc4)cc3)c2)CC1`, the melting point fell in the range of 232 to 233 °C. Under `CCS(=O)(=O)N[C@H](C(=O)NCCc1ccc(OCc2ccccc2)cc1)C(C)C` stands 133 to 134 °C. The molecule `CC(C(=O)N(C)C)n1ccc(-c2ccc(Cl)cc2)n1` (stereo not drawn) displayed a melting point of 95 to 99 °C. Under `CCc1cn(C2CC(O)C(CNC(=O)Cc3ccccc3N)O2)c(=O)[nH]c1=O` (stereo not drawn) stands 195 to 196 °C; under `CCOC(=O)/C(=C\Nc1cccc(OC)c1)c1ccc(OC)cc1`, 60 to 61 °C; under `COC(=O)c1ccc2c(c1)Oc1ccc(C(=O)OC)cc1C2(C)C`, 145 to 147 °C. On to `C=C(CN1CCOCC1)C(=O)O`, for which the melting point was in the range of 121 to 125 °C.

In turn, `NC(=O)c1cccc(-c2nc(=O)c3ccccc3s2)n1` came in with a melting point of 295 °C.

Molecule `CCn1ncc2c1ncc1c(=O)n(C)c3ncnn3c12` registered a melting point of 208 to 210 °C. Under `COc1ccc(/C=C/c2cc(F)cc(F)c2)cc1` stands 108 to 110 °C.
